According to patent publication US20090271164A1, “PREDICTING LONG-TERM EFFICACY OF A COMPOUND IN THE TREATMENT OF PSORIASIS” (priority 2008, published 2009):
“And” between values parts separate entries of the source, which are not always exact repeats. Equal values may be shown once. Read-outs that look alike come from different tables or passages of the source.

What was measured:
[1] = tested on: patients with moderate-to-severe chronic plaque psoriasis; test: Study M04-716 (CHAMPION), 16-week Phase III active- and placebo-controlled trial, PASI 75 response; assay type: in vivo, human; conditions: for PASI 75 response rate at Week 16: observed, Week 16 relative to Baseline
Method: The primary efficacy endpoint was the proportion of subjects achieving at least a 75% reduction in the Psoriasis Area and Severity Index (PASI) score (i.e., ≧PASI 75 response) at Week 16 relative to Baseline (Week 0).
Study M04-716 was a 16-week multicenter, double-blind, and double-dummy study.
PASI scores were assessed prior to the first dose of study drug (Baseline) and at Weeks 1, 2, 4, 8, 12 and 16.
Dose escalation/titration was carried out according to the efficacy and safety criteria defined in the protocol.
In addition, the subjects were candidates for systemic therapy or phototherapy.
The ADA treatment group received 40 mg every-other-week (eow) injections from Week 1, following an 80-mg initial dose. […] Dose escalation was carried out according to the efficacy and safety criteria defined in the study protocol. All study patients received injections as well as oral tablets, regardless of treatment group assignment (double-dummy design) (FIG. 5). Patient outcome was measured using a PASI 75 response: a 75% reduction (improvement) in PASI score at Week 16 compared with the baseline score.

[2] = tested on: patients with moderate-to-severe chronic plaque psoriasis; test: Population PK/PD (exposure-efficacy) modeling with NONMEM and clinical trial simulation of long-term MTX treatment; design: species or system human
Source text: The PK/PD model was built using a non-linear mixed-effects population modeling (NONMEM) approach with NONMEM software (double precision, Version VI) and a NMTRAN pre-processor. Models were compiled using the Intel Visual Fortran compiler (Version 9) on a dual processor workstation (DELL Precision 530) under the Windows 2000 (Service pack 4) operating system.
All 110 MTX-treated subjects in Study M04-716 were included in the population PK/PD analysis.
All the observed PASI scores over the 16-week period in MTX-treated subjects in Study M04-716 were used.
The amount in the central compartment was scaled by the apparent volume of distribution (V/F).
All subjects were assumed to have the typical PK parameter values (i.e., intersubject and intrasubject variabilities were set to zero).
Several PD models were examined. The first model is an indirect response model with an inhibitory effect (Imax and IC50) of Ce (concentration at an effect compartment) on Kin. Kin is the ‘synthesis rate’ into a compartment where PASI scores reside in. The 2nd model examined was similar to the final PD model (see below), except that the rate into the 3rd compartment is Kin·(Emax/(1+EC50/Cp)), rather than Kin·Cp.
The final PD model is a two-step indirect model (as shown below). […] In this model, Compartments 3 and 4 were added as delay/modulator compartments for triggering the observed PASI response.
Kin and Kout are the rate constants into and out of Compartment 3. […] Kout was set equal to Kin. K40 is the rate constant out of Compartment 4, and it controls the persistence of PASI response. PASI is the predicted PASI score, which equals to the baseline PASI score divided by a factor great than one, and the parameter ‘GAM’ influences the steepness of the functional relationship.
For the PD modeling, exponential error models were used to describe the inter-individual errors on the PD parameters Kin and K40.
The evaluation criteria used to select an appropriate PK/PD model are described below: • 1. […] The OFV is equal to −2 times the maximum logarithm of the likelihood of the data (−2LL). Non-hierarchical models are compared based on the AKAIKE criterion. • 2. The observed and predicted PASI scores from a preferred model were more randomly distributed across the line of unity (a straight line with zero intercept and a slope of one) than those from alternative model(s). • 3.
The first-order conditional estimation (FOCE) with INTERACTION method was employed within NONMEM, and a diagonal structure of the n matrix was assumed.
The final population PK/PD model was validated using a bootstrap method (random resampling with replacement). […]

[3] = cited from earlier work
[4] = two-step indirect response model, Run 18
[5] = fixed in the PK model, from the literature

| Compound | PASI75 Response Rate (90% CI) Actual (NRI) ([1]; Week 1) | PASI75 Response Rate (90% CI) Actual (NRI) ([1]; Week 2) | PASI75 Response Rate (90% CI) Actual (NRI) ([1]; Week 4) | PASI75 Response Rate (90% CI) Actual (NRI) ([1]; Week 8) | PASI75 Response Rate (90% CI) Actual (NRI) ([1]; Week 16) | PASI 75 response rate at Week 16 [1] | simulated PASI 75 response rate at Week 52 greater than that at Week 16 ([2]; difference Week 52 vs Week 16) | K40 = THETA (2), estimate, final PD model [2, 4] | Kin = THETA (1), estimate, final PD model [2, 4] | calculated Tmax ([2]; with CL/F = 3 L/day/kg, V/F = 0.6 L/kg, Ka = 10 day^−1) | V/F (apparent volume of distribution), values in the literature ([3]; RA) | CL/F (apparent clearance), value used in NONMEM [3, 5] | Ka (first-order absorption rate constant), value used in NONMEM [3, 5] | V/F (apparent volume of distribution), value used in NONMEM [3, 5] | half-life ([3]; in vivo) | Tmax, values in the literature ([3]; leukemic pediatric patients) | Vss (volume of distribution at steady state), values in the literature ([3]; patient population unspecified) | CL/F (apparent clearance), values in the literature ([3]; patients with psoriasis) | Tmax, values in the literature ([3]; patients with psoriasis) | CL/F (apparent clearance), values in the literature ([3]; patients with rheumatoid arthritis (RA)) |
| --- | --- | --- | --- | --- | --- | --- | --- | --- | --- | --- | --- | --- | --- | --- | --- | --- | --- | --- | --- | --- |
| CN(Cc1cnc2nc(N)nc(N)c2n1)c1ccc(C(=O)N[C@@H](CCC(=O)O)C(=O)O)cc1 [MTX, methotrexate] | 0.0 (0.1, 3.2) | 0.0 (0.1, 3.2) | 2.7 (0.8, 7.2) | 9.1 (5.2, 15.2) | 35.5 (28.0, 43.7) | 35.5% | approximately 12% | 0.0203 day⁻¹ | 3.83 day⁻¹ | Tmax would be 3.3 hrs, | 0.55 L/kg in RA.^2 | 2.1 mL/min/kg | 10 day⁻¹ | 0.6 L/kg | 2 to 3 h | Tmax = 0.67-4 hrs in leukemic pediatric patients.^3 | 0.4-0.8 L/kg (Vss).^3 | 12.4 L/h and 10.8 L/h and 11.5 L/h | Tmax = 2 hrs in patients with psoriasis. | 2.1 mL/min/kg in patients with rheumatoid |
| adalimumab | – | – | – | – | – | 79.6% | – | – | – | – | – | – | – | – | – | – | – | – | – | – |
